Target: Protein farnesyltransferase/geranylgeranyltransferase type-1 subunit alpha (Bos taurus, UniProt P29702)
Assay: PFT IC50 Determination
Details: pH 7.5; 37 °C
Protocol: Assays for PFT activity were performed with a PFT-specific scintillation assay (SPA) kit (Amersham Biosciences, Piscataway, NJ). IC50 values were calculated using linear regression analysis of the plots of [3H] farnesyl pyrophosphate (FPP) prenylation versus concentration of compounds.

Row | Structure (SMILES) | IC50
1 | CSCC[C@H](NC(=O)[C@H](Cc1ccc(O)c(C)c1C)NC(=O)[C@@H](NC(=O)[C@@H](N)CS)C(C)C)C(=O)O [(2S)-2-[(2S)-2-[(2S)-2-[(2R)-2-amino-3-sulfanylpropanamido]-3-methylbutanamido]-3-(4-hydroxy-2,3-dimethylphenyl)propanamido]-4-(methylsulfanyl)butanoic acid] | 100 nM
2 | CSCC[C@H](NC(=O)[C@@H](Cc1ccc(O)c(C)c1C)NC(=O)[C@@H](NC(=O)[C@H](CS)NC=O)C(C)C)C(=O)O [Cmpound XI] | > 100000 nM

From BindingDB's records for doi:10.1021/jm0506165 (Universita Di Napoli Federico Ii, 2006)
